What was measured:
HEK293 = test: Induction of VHL-mediated SGK3 degradation in HEK293 cells at 10 uM incubated for 48 hrs by immunoblot analysis relative to control; format: cell-based; conditions: Homo sapiens
[1] = target: Protein cereblon/Tyrosine-protein kinase ABL1/Breakpoint cluster region protein (Homo sapiens) (UniProt P00519+P11274+Q96SW2); test: Induction of CRBN-mediated BCR-ABL degradation in human K562 cells at 1 uM incubated for 24 hrs by Western blot analysis relative to control; format: cell-based
Protein cereblon/Tyrosine-protein kinase ABL1/Breakpoint cluster region protein (Homo sapiens), sequence (P00519 whole entry, looked up): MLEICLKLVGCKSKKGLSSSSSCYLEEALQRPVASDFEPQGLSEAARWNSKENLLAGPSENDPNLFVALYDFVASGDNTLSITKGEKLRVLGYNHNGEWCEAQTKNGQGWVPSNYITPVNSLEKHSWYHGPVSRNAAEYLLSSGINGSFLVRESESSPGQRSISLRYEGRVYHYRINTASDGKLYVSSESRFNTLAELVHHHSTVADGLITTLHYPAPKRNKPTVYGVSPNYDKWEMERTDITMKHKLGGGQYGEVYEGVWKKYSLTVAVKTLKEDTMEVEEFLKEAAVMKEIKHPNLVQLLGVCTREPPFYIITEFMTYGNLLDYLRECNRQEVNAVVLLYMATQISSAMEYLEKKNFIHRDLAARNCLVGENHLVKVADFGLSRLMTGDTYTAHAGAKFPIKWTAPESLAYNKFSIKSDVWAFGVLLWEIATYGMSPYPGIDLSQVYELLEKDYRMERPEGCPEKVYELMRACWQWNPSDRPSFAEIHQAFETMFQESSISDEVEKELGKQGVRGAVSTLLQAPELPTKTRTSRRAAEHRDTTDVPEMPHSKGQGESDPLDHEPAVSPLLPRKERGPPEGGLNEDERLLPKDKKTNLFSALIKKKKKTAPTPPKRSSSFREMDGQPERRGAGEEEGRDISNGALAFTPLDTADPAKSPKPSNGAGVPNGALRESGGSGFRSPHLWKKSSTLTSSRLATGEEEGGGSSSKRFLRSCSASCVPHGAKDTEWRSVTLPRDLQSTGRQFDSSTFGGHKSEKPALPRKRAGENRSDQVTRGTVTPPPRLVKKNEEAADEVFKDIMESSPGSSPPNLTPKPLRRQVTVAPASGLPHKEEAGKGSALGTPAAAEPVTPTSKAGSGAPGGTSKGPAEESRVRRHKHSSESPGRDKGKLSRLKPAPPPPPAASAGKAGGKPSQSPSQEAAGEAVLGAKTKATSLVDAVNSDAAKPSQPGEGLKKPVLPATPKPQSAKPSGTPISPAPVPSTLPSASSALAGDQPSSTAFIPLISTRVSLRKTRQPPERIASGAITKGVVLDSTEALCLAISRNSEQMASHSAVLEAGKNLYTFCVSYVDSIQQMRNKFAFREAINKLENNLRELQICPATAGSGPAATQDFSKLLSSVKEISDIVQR
Protein cereblon/Tyrosine-protein kinase ABL1/Breakpoint cluster region protein (Homo sapiens), sequence (P11274 whole entry, looked up): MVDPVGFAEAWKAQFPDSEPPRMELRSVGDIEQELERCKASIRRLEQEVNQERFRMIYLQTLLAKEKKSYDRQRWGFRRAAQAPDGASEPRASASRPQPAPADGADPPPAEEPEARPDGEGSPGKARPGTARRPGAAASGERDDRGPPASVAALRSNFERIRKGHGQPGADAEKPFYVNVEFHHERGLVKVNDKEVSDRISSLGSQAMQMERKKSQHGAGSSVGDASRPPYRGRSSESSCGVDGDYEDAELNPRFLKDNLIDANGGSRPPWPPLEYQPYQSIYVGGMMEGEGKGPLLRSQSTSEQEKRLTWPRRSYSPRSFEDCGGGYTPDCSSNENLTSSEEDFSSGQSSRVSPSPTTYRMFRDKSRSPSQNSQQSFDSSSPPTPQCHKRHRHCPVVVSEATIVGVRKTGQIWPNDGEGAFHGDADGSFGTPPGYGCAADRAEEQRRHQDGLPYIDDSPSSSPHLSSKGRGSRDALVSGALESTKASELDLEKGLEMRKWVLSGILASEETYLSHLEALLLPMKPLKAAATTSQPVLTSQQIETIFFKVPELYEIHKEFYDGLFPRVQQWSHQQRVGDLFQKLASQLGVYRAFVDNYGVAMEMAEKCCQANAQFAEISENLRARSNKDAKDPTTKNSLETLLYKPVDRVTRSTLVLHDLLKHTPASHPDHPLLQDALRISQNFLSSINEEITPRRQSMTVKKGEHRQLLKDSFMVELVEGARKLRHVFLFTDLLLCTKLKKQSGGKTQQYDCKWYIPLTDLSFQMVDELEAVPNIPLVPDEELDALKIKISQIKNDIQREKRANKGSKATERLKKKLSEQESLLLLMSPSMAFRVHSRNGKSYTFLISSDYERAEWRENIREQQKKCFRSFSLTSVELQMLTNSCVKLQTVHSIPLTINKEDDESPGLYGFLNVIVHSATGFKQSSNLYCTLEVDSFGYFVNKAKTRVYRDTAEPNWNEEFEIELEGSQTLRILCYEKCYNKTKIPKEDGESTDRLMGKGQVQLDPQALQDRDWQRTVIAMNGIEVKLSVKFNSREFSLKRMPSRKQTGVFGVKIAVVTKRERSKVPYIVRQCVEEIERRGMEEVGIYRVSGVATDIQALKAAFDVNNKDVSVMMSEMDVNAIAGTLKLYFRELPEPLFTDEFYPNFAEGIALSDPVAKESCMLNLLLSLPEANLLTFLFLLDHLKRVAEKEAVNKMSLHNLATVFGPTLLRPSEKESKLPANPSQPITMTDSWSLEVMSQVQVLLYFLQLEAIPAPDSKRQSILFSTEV
Protein cereblon/Tyrosine-protein kinase ABL1/Breakpoint cluster region protein (Homo sapiens), sequence (Q96SW2 whole entry, looked up): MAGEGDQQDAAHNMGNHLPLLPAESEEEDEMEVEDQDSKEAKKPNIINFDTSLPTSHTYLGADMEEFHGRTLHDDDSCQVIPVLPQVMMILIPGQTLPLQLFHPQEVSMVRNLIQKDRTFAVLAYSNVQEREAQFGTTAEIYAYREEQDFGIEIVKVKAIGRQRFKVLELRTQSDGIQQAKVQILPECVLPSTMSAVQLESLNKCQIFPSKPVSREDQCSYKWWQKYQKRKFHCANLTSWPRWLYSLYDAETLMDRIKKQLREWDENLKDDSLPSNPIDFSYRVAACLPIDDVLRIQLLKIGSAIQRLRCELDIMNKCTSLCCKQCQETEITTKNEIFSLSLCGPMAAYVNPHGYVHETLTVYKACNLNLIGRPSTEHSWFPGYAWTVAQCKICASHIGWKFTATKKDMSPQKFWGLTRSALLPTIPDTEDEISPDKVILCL

| SMILES | Activity (HEK293) [%] | Activity [1] [%] |
| --- | --- | --- |
| COc1ccc(Cl)c(S(=O)(=O)Nc2ccc(-c3nc(OC[C@H]4CN(CCCCCCOCCOCCOCCOCC(=O)N[C@H](C(=O)N5C[C@H](O)C[C@H]5C(=O)NCc5ccc(-c6scnc6C)cc5)C(C)(C)C)CCO4)c4c(C)n[nH]c4n3)cc2)c1 | > 50 | – |
| Cc1ccc(F)c(S(=O)(=O)Nc2ccc(-c3nc(OC[C@H]4CN(CCOCCOCCOCCOCCOCC(=O)N[C@H](C(=O)N5C[C@H](O)C[C@H]5C(=O)NCc5ccc(-c6scnc6C)cc5)C(C)(C)C)CCO4)c4cn[nH]c4n3)cc2)c1 | > 50 | – |
| COc1ccc(Cl)c(S(=O)(=O)Nc2ccc(-c3nc(OC[C@H]4CN(CCCCCCOCCCCCCOCC(=O)N[C@H](C(=O)N5C[C@H](O)C[C@H]5C(=O)NCc5ccc(-c6scnc6C)cc5)C(C)(C)C)CCO4)c4c(C)n[nH]c4n3)cc2)c1 | > 50 | – |
| Cc1ccc(F)c(S(=O)(=O)Nc2ccc(-c3nc(OC[C@H]4CN(CCCCCCOCCOCCOCC(=O)N[C@H](C(=O)N5C[C@H](O)C[C@H]5C(=O)NCc5ccc(-c6scnc6C)cc5)C(C)(C)C)CCO4)c4cn[nH]c4n3)cc2)c1 | > 50 | – |
| Cc1ccc(F)c(S(=O)(=O)Nc2ccc(-c3nc(OC[C@H]4CN(CCOCCOCCOCCOCC(=O)N[C@H](C(=O)N5C[C@H](O)C[C@H]5C(=O)NCc5ccc(-c6scnc6C)cc5)C(C)(C)C)CCO4)c4cn[nH]c4n3)cc2)c1 | > 50 | – |
| Cc1nc(Nc2ncc(C(=O)Nc3c(C)cccc3Cl)s2)cc(N2CCN(CCCCCCOCCOCCOCCCCCC(=O)Nc3cccc4c3C(=O)N(C3CCC(=O)NC3=O)C4=O)CC2)n1 (stereo not given) | – | > 60 |
| Cc1ccc(F)c(S(=O)(=O)Nc2ccc(-c3nc(OC[C@H]4CN(CCOCCOCCOCC(=O)N[C@H](C(=O)N5C[C@H](O)C[C@H]5C(=O)NCc5ccc(-c6scnc6C)cc5)C(C)(C)C)CCO4)c4cn[nH]c4n3)cc2)c1 | > 50 | – |
| Cc1ccc(F)c(S(=O)(=O)Nc2ccc(-c3nc(OC[C@H]4CN(CCOCCOCC(=O)N[C@H](C(=O)N5C[C@H](O)C[C@H]5C(=O)NCc5ccc(-c6scnc6C)cc5)C(C)(C)C)CCO4)c4cn[nH]c4n3)cc2)c1 | > 50 | – |
| Cc1ccc(F)c(S(=O)(=O)Nc2ccc(-c3nc(OC[C@H]4CN(CCCCCCOCCCCCCOCC(=O)N[C@H](C(=O)N5C[C@H](O)C[C@H]5C(=O)NCc5ccc(-c6scnc6C)cc5)C(C)(C)C)CCO4)c4cn[nH]c4n3)cc2)c1 | > 50 | – |
| Cc1ccc(F)c(S(=O)(=O)Nc2ccc(-c3nc(OC[C@H]4CN(CCCCCCOCCOCCOCCOCC(=O)N[C@H](C(=O)N5C[C@H](O)C[C@H]5C(=O)NCc5ccc(-c6scnc6C)cc5)C(C)(C)C)CCO4)c4cn[nH]c4n3)cc2)c1 | > 50 | – |

From ChEMBL document CHEMBL4765444, “Chimera induced protein degradation: PROTACs and beyond” (Eur J Med Chem, 2020)
